Data from ChEMBL document CHEMBL1201862, “PubChem BioAssay data set” (2004).
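Briefly, cells in 96-well plates were exposed to five compound concentrations for 48 h, and endpoints were estimated by linear interpolation. Abbreviation: GI50, concentration required for 50% inhibition of growth.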 Active and inactive are the calls of the source. Rule as the data show it: active = GI50 up to about 1.1 µM and inactive = higher.

How the values were obtained:
Assay in all cases: inhibition of tumour cell growth, NCI panel, 48 h
[1] = system: SF-295
[2] = system: OVCAR-3
[3] = system: U-251
[4] = system: HOP-92
[5] = system: TK-10
[6] = system: SK-MEL-28
[7] = system: NCI-H226
[8] = system: 786-0
[9] = system: MOLT-4
[10] = system: CAKI-1
[11] = system: HCT-116
[12] = system: SK-OV-3
[13] = system: SN12C
[14] = system: HOP-62
[15] = system: SNB-19
[16] = system: UO-31
[17] = system: NCI-H23
[18] = system: Hs-578T
[19] = system: MDA-MB-231

| SMILES | GI50 [1] | GI50 [2] | GI50 [3] | GI50 [4] | GI50 [5] | GI50 [6] | GI50 [7] | GI50 [8] | GI50 [9] | GI50 [10] | GI50 [11] | GI50 [12] | GI50 [13] | GI50 [14] | GI50 [15] | GI50 [16] | GI50 [17] | GI50 [18] | GI50 [19] |
| --- | --- | --- | --- | --- | --- | --- | --- | --- | --- | --- | --- | --- | --- | --- | --- | --- | --- | --- | --- |
| Cc1cc(S(=O)(=O)Nc2nc(N)nc(N(C)C)n2)c(S)cc1Cl | > 10 µM (inactive) | > 10 µM (inactive) | > 10 µM (inactive) | > 10 µM (inactive) | > 10 µM (inactive) | > 10 µM (inactive) | > 10 µM (inactive) | > 10 µM (inactive) | > 10 µM (inactive) | > 10 µM (inactive) | > 10 µM (inactive) | > 10 µM (inactive) | > 10 µM (inactive) | > 10 µM (inactive) | > 10 µM (inactive) | > 10 µM (inactive) | > 10 µM (inactive) | – | – |
| C=C1C(=O)OC2C1CCC(C)C1(O)C=CC(=O)C21C (configuration not stated) | > 10 µM (inactive) | 4.9 µM (inactive) | > 10 µM (inactive) | 3.33 µM (inactive) | 6.75 µM (inactive) | 5.92 µM (inactive) | > 10 µM (inactive) | 6.11 µM (inactive) | 3.1 µM (inactive) | – | 5.04 µM (inactive) | > 10 µM (inactive) | > 10 µM (inactive) | > 10 µM (inactive) | > 10 µM (inactive) | 3.24 µM (inactive) | 7.69 µM (inactive) | > 10 µM (inactive) | – |
| COC(=O)[C@@H]1CCCN1CCN1CCC[C@H]1C(=O)OC | > 100 µM (inactive) | > 100 µM (inactive) | > 100 µM (inactive) | > 100 µM (inactive) | > 100 µM (inactive) | > 100 µM (inactive) | – | > 100 µM (inactive) | > 100 µM (inactive) | > 100 µM (inactive) | > 100 µM (inactive) | > 100 µM (inactive) | > 100 µM (inactive) | > 100 µM (inactive) | > 100 µM (inactive) | > 100 µM (inactive) | > 100 µM (inactive) | – | > 100 µM (inactive) |
| COc1cccc2c1CCc1cc3c(N)nc(N)nc3nc1-2 | 4.42 µM (inactive) | 7.26 µM (inactive) | 2.67 µM (inactive) | 14 µM (inactive) | 10.9 µM (inactive) | 2.78 µM (inactive) | 12.6 µM (inactive) | 2.08 µM (inactive) | 0.653 µM (active) | 5.45 µM (inactive) | 2.55 µM (inactive) | 17.7 µM (inactive) | 6.43 µM (inactive) | 5.4 µM (inactive) | 5.45 µM (inactive) | 3.21 µM (inactive) | 5.06 µM (inactive) | – | 3.09 µM (inactive) |
| COc1ccc(/C=C/c2ccnc3ccccc23)cc1OC | 13.8 µM (inactive) | 12.5 µM (inactive) | 46.9 µM (inactive) | – | 15.6 µM (inactive) | 17.5 µM (inactive) | 22.9 µM (inactive) | 44.3 µM (inactive) | 19.1 µM (inactive) | 15.8 µM (inactive) | 12.6 µM (inactive) | 27.7 µM (inactive) | 17.9 µM (inactive) | 15.1 µM (inactive) | 17.4 µM (inactive) | 0.186 µM (active) | 14.9 µM (inactive) | 18.1 µM (inactive) | – |
| C[C@@]1(OC(=O)c2cc([N+](=O)[O-])cc([N+](=O)[O-])c2)C[C@@H]2CCCC[C@@H]21 | 66.4 µM (inactive) | – | > 100 µM (inactive) | – | > 100 µM (inactive) | > 100 µM (inactive) | > 100 µM (inactive) | > 100 µM (inactive) | > 100 µM (inactive) | > 100 µM (inactive) | > 100 µM (inactive) | > 100 µM (inactive) | > 100 µM (inactive) | > 100 µM (inactive) | > 100 µM (inactive) | > 100 µM (inactive) | > 100 µM (inactive) | 41.8 µM (inactive) | > 100 µM (inactive) |
| CSc1[nH]nc(N)c1C(=O)Nc1ccc(Cl)cc1 | – | > 100 µM (inactive) | 92.3 µM (inactive) | – | 47.2 µM (inactive) | > 100 µM (inactive) | 25.6 µM (inactive) | 52.1 µM (inactive) | 51.6 µM (inactive) | 46.2 µM (inactive) | 23.6 µM (inactive) | > 100 µM (inactive) | > 100 µM (inactive) | – | 66.5 µM (inactive) | 33 µM (inactive) | 36.6 µM (inactive) | > 100 µM (inactive) | > 100 µM (inactive) |
| Cc1sc(N/N=C2\C(=O)Nc3ccccc32)nc1-c1ccccc1 | 11 µM (inactive) | 12.6 µM (inactive) | 11 µM (inactive) | 23 µM (inactive) | 23.8 µM (inactive) | 17.3 µM (inactive) | 33.3 µM (inactive) | 17.4 µM (inactive) | 12.6 µM (inactive) | 17.4 µM (inactive) | 12.4 µM (inactive) | 14.9 µM (inactive) | 12.1 µM (inactive) | 12 µM (inactive) | 16.6 µM (inactive) | 13.6 µM (inactive) | 16.6 µM (inactive) | – | 14.5 µM (inactive) |
